The values below come from article PMC12022980, “Rational Design of PROTAC Linkers Featuring Ferrocene as a Molecular Hinge to Enable Dynamic Conformational Changes” (Journal of the American Chemical Society, 2025).

The target in one data set is T1, pVHL30 (Homo sapiens, UniProt P40337).
T1 construct: endogenous in cells; host or cells: HEK293 (ATCC)
Nature of the data set: Western blot VHL degradation in HEK293 cells. The format is cell-based. Background: In western blotting, separated proteins are transferred to a membrane and probed.

Data set [1] in a line: Variable temperature NMR (vt-NMR) of amide protons in CDCl3. Format: physicochemical. The conditions noted are these: CDCl3, 298–328 K. The text has this: With this premise, we performed NMR studies to quantify the HBD solvent exposure of the amide protons using the HBD Acidity NMR score (ANMR)[47] and variable temperature studies (vt-NMR).[48] To note, although vt-NMR has originally been developed and applied to the study of peptides,[49] it is, together with the ANMR value, a well-established method for studying the intramolecular hydrogen bonding (IMHB) patterns in systems such as PROTACs[10],[12],[18],[26] as well as in ferrocene structures.[29],[50]−[53] […]
Standard NMR experiments were performed at 298 K, while variable-temperature NMR experiments recorded spectra across a temperature range from 298 K to 328 K allowing a sufficient temperature equilibration time (10–15 min) before signal acquisition. All NOESY spectra for conformational analysis as well as the assignment spectra in methanol-d 4 were recorded on a 500 MHz Bruker Avance III equipped with a 5 mm QCI cryogenic probe. NOESY spectra were obtained from a sample at 1.25 mM in CDCl3 and 1.25 mM in methanol-d4, recorded at 298 K, using 16 transients, 1024 points in the direct dimension and 512 points in the indirect dimension, a relaxation delay of 1.5 s, and a mixing time of 700 ms. All other spectra used for signal assignment in CDCl3 were recorded on 500 MHz Bruker Avance NEO with a BBFO SmartProbe. […]

For orientation: Dmax means the greatest extent of degradation seen.

Like-named read-outs stand apart in the source and are kept apart here.

T1 sequence (P40337 whole entry): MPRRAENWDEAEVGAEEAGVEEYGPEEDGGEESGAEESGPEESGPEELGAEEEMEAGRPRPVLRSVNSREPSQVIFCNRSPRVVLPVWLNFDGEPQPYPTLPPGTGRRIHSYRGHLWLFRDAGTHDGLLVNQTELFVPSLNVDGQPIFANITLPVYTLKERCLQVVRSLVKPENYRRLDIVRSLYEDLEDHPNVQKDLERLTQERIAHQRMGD
Procedure for pVHL30: To further elucidate the mode of action of FerroTAC AS2, we explored its dependency on ubiquitination and proteasome activity.
A) Representative immunoblots of VHL protein levels after treatment of
HEK293 cells. Cells were treated with 0.1% EtOH, 0.1 μM or 1 μM of the indicated compounds for 4 and 24 h.
Controls were included at 1 μM for 24 h. Mean values of two biologically independent experiments.
Representative time-course immunoblots of VHL protein levels after treatment of HEK293 cells treated with
Cells were treated with 0.1% EtOH and controls at 1 μM. Mean values of two biologically
independent experiments. Apparent half-life values (t 1/2) were estimated by fitting band intensity against time
using a single-phase exponential decay model. C) Representative immunoblots of VHL protein levels in
neddylation inhibitor MLN4924 (3 μM) and VHL inhibitor VH032 (50 μM). The amount of EtOH (0.1%) and
DMSO (0.5%) is fixed in all samples. Band quantification was performed using ImageJ software and reported
(in black and black) as relative amount as ratio of each protein band relative to the lane’s loading control
(tubulin). VHL/tubulin protein ratios were normalised to the average of the controls (100%).
HEK293 and HCT116 cell lines, purchased from ATCC, were cultured in Dulbecco’s modified Eagle’s medium (DMEM, Gibco) supplemented with 10% fetal bovine serum (FBS, Gibco), L-glutamine (2 mM, Gibco) and 100 μg/mL of penicillin/streptomycin (Gibco). All cell lines were maintained in a humidified incubator at 37 °C and 5% CO2 for no more than 30 passages. Cells were routinely tested for mycoplasma contamination.
Cell Treatment for Immunoblotting
depending on the experimental setup. Cells were treated in fresh medium with the indicated compounds under indicated conditions with a final EtOH or iPrOH concentration of 0.01% (v/v) to 0.1% (v/v) depending on the experimental setup. […]
stored at −80°C. Protein concentration was determined by bicinchoninic acid (BCA) assay (Thermo Fisher […]
Quantitative Immunoblotting […]

As for `Cc1ncsc1-c1ccc(CNC(=O)[C@@H]2C[C@@H](O)CN2C(=O)[C@@H](NC(=O)COCCOCCOCCOCCOCCOCC(=O)N[C@H](C(=O)N2C[C@H](O)C[C@H]2C(=O)NCc2ccc(-c3scnc3C)cc2)C(C)(C)C)C(C)(C)C)cc1` [CM11], the Dmax at 1 µM at pVHL30 (HEK293, 4 h, read-out: Dmax at 1 μM (pVHL30)) is 98%; at pVHL30 (HEK293, 24 h, read-out: maximal degradation (Dmax) of pVHL30), 100%.
Take `Cc1ncsc1-c1ccc(CNC(=O)[C@@H]2C[C@@H](O)CN2C(=O)[C@@H](NC(=O)CCCCCOCCOCCCCCC(=O)Nc2cccc3c2C(=O)N(C2CCC(=O)NC2=O)C3=O)C(C)(C)C)cc1` (stereo partly shown) [14a]: in data set [1], the “temperature coefficient Δδ/ΔT N(1)-H” value is on record as −3.52 ppb/K and the “temperature coefficient Δδ/ΔT N(2)-H” value was −1.57 ppb/K.
